Broadly, the viability is a read-out of living cells in per cent, often relative to untreated cells.

Here are results for one molecule from patent publication CN110483432A, “一类丙烯酸类化合物及其制备方法、药物组合物和用途” (Shanghai Institute of Materia Medica of CAS, priority 2018, dated 2019).

The target of one data set is CREB/CRTC2 (Homo sapiens, UniProt P16220+Q53ET0). Briefly: Mammalian two-hybrid (CREB-GAL4-BD / CRTC2-VP16-AD, Gal4-luciferase reporter) test of inhibition of CREB/CRTC2 protein interaction in HEK293 cells. Type of data set: cell-based. To be noted: 50 μM final concentration; HEK293 two-hybrid activation model (Forsklin); overnight; read-out: relative reporter gene activity (vs solvent control DMSO, set to 100%).

A short description of data set [1]: Cytotoxicity test in HEK293 cells (CCK8). The following applies: human, overnight, HEK293, CCK8 OD450, read-out: cell viability. Format: cell-based.
Data set [2] deals with CREB phosphorylation (Ser133) (CREB的磷酸化(Ser133)). Description: Western blot of CREB phosphorylation (Ser133) in glucagon signalling pathway. Format: cell-based, mouse. The following applies: 20 μM, 1 h preincubation, glucagon 100 nM, 30 min, primary hepatocytes or liver tissue.

CREB/CRTC2, sequence (P16220 whole entry, the tested form may be a part): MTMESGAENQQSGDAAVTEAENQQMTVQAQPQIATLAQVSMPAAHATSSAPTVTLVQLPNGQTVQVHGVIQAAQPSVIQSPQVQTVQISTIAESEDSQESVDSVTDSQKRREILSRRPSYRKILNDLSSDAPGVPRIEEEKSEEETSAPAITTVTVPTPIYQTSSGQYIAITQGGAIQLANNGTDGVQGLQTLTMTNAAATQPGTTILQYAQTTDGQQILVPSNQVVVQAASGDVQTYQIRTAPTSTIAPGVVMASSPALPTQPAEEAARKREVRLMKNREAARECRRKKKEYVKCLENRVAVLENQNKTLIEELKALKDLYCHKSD
CREB/CRTC2, sequence (Q53ET0 whole entry, the tested form may be a part): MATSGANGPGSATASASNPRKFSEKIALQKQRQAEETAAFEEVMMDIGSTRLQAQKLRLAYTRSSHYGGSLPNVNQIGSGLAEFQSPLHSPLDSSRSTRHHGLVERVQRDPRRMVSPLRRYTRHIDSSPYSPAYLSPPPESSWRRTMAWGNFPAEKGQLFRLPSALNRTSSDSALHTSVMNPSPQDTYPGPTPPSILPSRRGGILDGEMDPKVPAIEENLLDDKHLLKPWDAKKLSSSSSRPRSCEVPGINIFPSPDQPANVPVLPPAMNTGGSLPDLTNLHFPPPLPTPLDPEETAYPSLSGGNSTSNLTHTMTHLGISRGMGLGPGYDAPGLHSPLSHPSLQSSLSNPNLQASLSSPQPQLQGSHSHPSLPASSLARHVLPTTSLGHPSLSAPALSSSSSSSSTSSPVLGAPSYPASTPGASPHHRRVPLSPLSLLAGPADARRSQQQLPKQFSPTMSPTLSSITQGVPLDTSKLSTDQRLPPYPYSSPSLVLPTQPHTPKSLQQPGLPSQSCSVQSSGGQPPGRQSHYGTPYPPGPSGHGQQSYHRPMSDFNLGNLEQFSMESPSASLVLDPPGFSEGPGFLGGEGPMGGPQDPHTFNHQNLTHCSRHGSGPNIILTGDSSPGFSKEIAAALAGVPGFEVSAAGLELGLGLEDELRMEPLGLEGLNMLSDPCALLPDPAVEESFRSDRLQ

Regarding `O=C(/C=C/c1cccc(-c2ccccc2)c1)N1C(=O)OC[C@@H]1c1ccccc1` [A57, (S,E)-3-(3-([1,1’-联苯基]-3-基)丙烯酰)-4-苯基噁唑烷-2-酮], the remaining activity at 50 µM at CREB/CRTC2 was less than 30%. Besides, the viability at 50 µM in data set [1] is roughly 100%. For the same molecule, in data set [2], the “effect on glucagon-stimulated CREB phosphorylation level” value is on record as “没有显著的影响”.
